Measurements taken from patent US10203334B2, “Methods and compositions related to nucleic acid binding assays” (Nubad, LLC, priority 2012, dated 2019).

Tests used:
Type in all cases: binding
[1] = tested on: E. coli rRNA A-site oligonucleotide (SEQ ID NO. 1); assay: Fluorescence titration of F-neo with bacterial rRNA A-site oligonucleotide and titration of the complex with neomycin; settings: 1:1 stoichiometric ratio of conjugate and A-site oligonucleotide; pH 7.0
From the text: This compound F-neo or 42a is a fluorescein conjugate coupled through the 5″ OH position of the ribose ring of neomycin B (H. Xi, E. Davis, N. Ranjan, L. Xue, D. Hyde-Volpe, D. P. Arya, Thermodynamics of nucleic Acid “shape readout” by an aminosugar, Biochemistry. 50 (2011) 9088-9113). E. coli rRNA Asite oligonucleotide (SEQ ID NO. 1, […]) is a synthetic RNA sequence 27 bases long designed to mimic the ribosomal A-site. The A-site oligonucleotide (SEQ ID NO. 1) is titrated into F-neo (42a) to give a concentration dependent loss of fluorescence of F-neo (42a). […]
The effect of bacterial A-site oligonucleotide (SEQ ID No. 1) on the fluorescence emission intensity of a fluorescein-neomycin conjugate (F-neo or 42a) is recorded in FIG. 2. […]
The F-neo (42a) can be competitively displaced from the A-site RNA oligonucleotide (SEQ ID No. 1) by the addition of non-fluorescent RNA binding drugs. Titrating neomycin into the F-neo (42a):A-site complex increases the fluorescence in a dose dependent manner that saturates at a 1:1 stoichiometric ratio of drug-to-complex. Additionally, a strong signal window, measured as an increase in fluorescence is present at a 3:1 molar ratio, and a maximum change in fluorescence at approximately 10:1 molar ratio. […] Fluorescence emission intensity (517 nm) of 0.3 mM A-site oligonucletide/F-neo complex solution increased with increasing concentration of neomycin. […]

[2] = tested on: E. coli ribosomal A-site (SEQ ID No. 1); assay: Quenching of F-neo by ribosomal A-site mimics, 96-well; settings: 0.1 μM RNA to 0.1 μM F-neo (42a); em 535 nm, ex 485 nm; ten wells averaged
Description: (§1) Disclosed is an HTS showing the difference in the binding affinity of fluorescene-neomycin (F-neo (42a)) to various synthetic RNA sequence 27 bases long designed to mimic the ribosomal A-site using a 96 well plate format and a fluorescent plate reader. Differences in binding are determined by the differential quenching of F-neo (42a) upon binding to the RNA.
(§2) Following the SOP's established for F-neo (42a) binding to E. coli A-site, each sequence was added at 0.1 μM RNA to 0.1 μM F-neo (42a) using 100 reads/well using a Tecan Genios Pro plate reader in a 96 well Greiner black plate. The emission was measured at wavelength 535 nm, using an excitation wavelength of 485 nm. All experiments were performed in 10 mM hepes (7.0), 50 mM NaCl, and 0.4 mM EDTA.

[3] = tested on: human ribosomal A-site (SEQ ID NO. 2); assay: as above; settings: 0.1 μM RNA to 0.1 μM F-neo (42a); em 535 nm, ex 485 nm; ten wells averaged
Description: as §1, §2

[4] = tested on: mutant mitochondria ribosomal A-site (SEQ ID NO. 4); assay: as above; settings: 0.1 μM RNA to 0.1 μM F-neo (42a); em 535 nm, ex 485 nm; ten wells averaged
Description: as §1, §2

[5] = tested on: 13 different nucleic acid structures; assay: Competition dialysis, whole panel; settings: Na^+ concentration increases from 100 to 200 mM
From the text: Disclosed is the use of fluorescent aminosugar probes such as F-neo (42a) to probe a variety of nucleic acid targets. Competition dialysis was used as a nucleic acid screening technique to illustrate the binding of F-neo (42a) to different nucleic acid structures.
Competition dialysis studies using a fluorescein-neomycin conjugate (F-neo (42a)). […] Comparative binding of F-neo (42a) to 13 different nucleic acid structures was examined which included single strand nucleic acids [poly(dT), poly(A), poly(U)], duplexes [poly(dA).poly(dT), poly(rA).poly(dT), poly(rA).poly(rU), poly(dA).poly(rU), poly(dG).poly(dC), calf thymus], triplexes [poly(dA).2poly(dT), poly(rA).2poly(rU)], i-motif (polydC) and 16S A-site rRNA (SEQ ID No. 1). The amount of F-neo (42a) bound to each nucleic acid is shown as a bar graph in FIG. 13. Because all nucleic acids are dialyzed simultaneously in the same ligand solution, the amount of bound F-neo (42a) is directly proportional to its affinity for each nucleic acid. […] 200 μL of different nucleic acids (7.5 μM per monomeric unit of each polymer) was dialyzed for 72 h with 400 mL 100 nM ligand in 6 mM Na2HPO4, 2 mM NaH2PO4, 1 mM Na2EDTA, pH 7.0 and various Na+ concentrations as indicated.
The binding of F-neo (42a) to nucleic acids is affected by the salt concentration. […]

NCC1O[C@H](OC2C(O)C(OC3C(O)[C@H](N)CC(N)[C@H]3O[C@H]3OC(CN)[C@@H](O)C(O)C3N)O[C@@H]2CSCCNC(=O)CCSCC(=O)Nc2ccc(-c3c4ccc(=O)cc-4oc4cc(O)ccc34)c(C(=O)O)c2)C(N)C(O)[C@@H]1O (some centres unmarked) [F-neo (42a), Neomycin-Fluorescein Conjugate]
reduction in fluorescence emission intensity [1]: 3 fold | fluorescence of F-neo with RNA [2]: 7963 (±221) | fluorescence of F-neo with RNA [3]: 9503 (±208) | fluorescence of F-neo with RNA [4]: 8515 (±230) | decrease of amount bound for each nucleic acid structure [5]: 4-5 times
